Legend:
Assay type in all cases: cell-based
PPM phosphatase [1] = test: Mg2+ dependent, okadaic acid resistant casein phosphatase (PPM phosphatase) activity in HeLa cell lysates; details: HeLa cells, 2 mM metformin
Procedure: (§1) A PPM phosphatase activity in treated and untreated HEK293 cell lysates using casein as substrate in the presence of 10 mM MgAc and 5 μM okadaic acid. Data are mean±SEM with five independent samples measured in duplicate. (p<0.001). B PPM phosphatase activity in treated and untreated HeLa cell lysates using casein as substrate in the presence of 10 mM MgAc and 5 μM okadaic acid. Data are mean±SEM with four independent samples measured in duplicate. (p<0.001).
(§2) The activity of PP2C (PPM1) and related members of the PPM family was assessed using ^32P-labelled casein as substrate with 5 μM okadaic acid included in the reaction to inhibit PP2A, and 10 mM magnesium acetate, which is known to be required for the activity of PP2C (Ingebritsen and Cohen, 1983 Science vol 221, pp 331-338; Ingebritsen et al., 1983 Eur J Biochem vol 132, pp 263-274).
To test whether phenformin is able to have similar effects in this cell line, PPM phosphatase activity in HeLa cells either untreated or treated with 10 mM phenformin was assessed. Again, a ˜20% decrease in PPM phosphatase activity could be observed in cells treated with phenformin (FIG. 2B). In this experiment, the activity of many PP2C isoforms is measured, and the 20% decrease observed may represent a more severe decrease in activity of only one such isoform.

PPM1E = target: T1, PPM1E (Homo sapiens, UniProt Q8WY54); test: Activity of PPM phosphatase immunoprecipitated from HEK293 cell lysates, casein substrate; details: HEK293 cells, 2 mM metformin for 10 minutes prior to lysis
T1 construct: The PPM1A1 and PPM1E isoforms were immunoprecipitated in triplicate from untreated or metformin-treated HEK293 cell lysates; endogenous in cells; host or cells: HEK293
T1 sequence (Q8WY54 1-755): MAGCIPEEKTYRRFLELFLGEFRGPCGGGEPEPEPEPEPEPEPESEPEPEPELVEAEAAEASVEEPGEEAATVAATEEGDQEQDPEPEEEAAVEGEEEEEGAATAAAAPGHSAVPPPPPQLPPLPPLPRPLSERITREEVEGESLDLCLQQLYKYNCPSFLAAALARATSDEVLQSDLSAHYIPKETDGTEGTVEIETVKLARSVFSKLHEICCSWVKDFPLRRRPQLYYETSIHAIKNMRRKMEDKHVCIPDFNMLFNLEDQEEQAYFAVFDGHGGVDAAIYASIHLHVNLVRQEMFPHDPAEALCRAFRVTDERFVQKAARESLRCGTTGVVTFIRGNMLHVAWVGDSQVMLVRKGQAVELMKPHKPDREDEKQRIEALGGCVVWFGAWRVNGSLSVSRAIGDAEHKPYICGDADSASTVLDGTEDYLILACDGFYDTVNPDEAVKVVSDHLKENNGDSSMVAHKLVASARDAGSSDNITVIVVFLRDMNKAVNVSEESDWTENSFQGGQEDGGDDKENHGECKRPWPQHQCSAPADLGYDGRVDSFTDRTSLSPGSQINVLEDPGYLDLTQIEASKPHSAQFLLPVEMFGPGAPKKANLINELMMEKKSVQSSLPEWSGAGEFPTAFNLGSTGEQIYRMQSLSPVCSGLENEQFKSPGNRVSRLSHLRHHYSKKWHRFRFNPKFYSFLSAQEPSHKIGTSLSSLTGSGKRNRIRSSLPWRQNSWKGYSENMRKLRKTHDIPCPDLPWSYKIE
Procedure: PPM1E is immunopelleted with antibodies raised the amino acid sequence […] and the phosphatase activity in the immunopellet is measured in a protein phosphatase assay using 32P-labelled casein as substrate in the presence of 10 mM Mg2+ or Mn2+ ions and 5 μM okadaic acid.
(§3) PPM phosphatase activity in HEK293 cell lysates either untreated or treated with 10 mM phenformin for 1 hour. Individual isoforms were immunoprecipitated from control or phenformin-treated cell lysates and activity measured using ^32P labelled casein as substrate in the presence of 10 mM MgAc and […] acid. Data are mean activities for assays performed in triplicate.
(§4) To determine with greater certainty which PPM phosphatases are affected by biguanide, the PPM phosphatase activity associated with each of the PPM enzymes was assessed. […] No change could be detected in the PPM phosphatases associated with PPM1A1, PPM1B1, PPM1B2, PPM1D, PPM1G, ILKAP, Nerpp, PDPC1 or PDPC2. […] Following immunoprecipitation and immunoblotting of the PPM1E immunoprecipitate from untreated HEK293 cells, no signal could be detected using an antibody directed against PPM1E.
HEK293 cells were treated with 2 mM metformin for 10 minutes prior to lysis. […] Control immunoprecipitations were preformed in triplicate for each lysate using pre-immune antibody and subtracted from the activity calculated for the PPM phosphatase immunoprecipitations. […]

PPM phosphatase [2] = test: Mg2+ dependent, okadaic acid resistant casein phosphatase (PPM phosphatase) activity in HEK293 cell lysates; details: HEK293 cells, 2 mM metformin
Procedure: as §1
(§5) To study the effects of biguanide on the activity of protein phosphatases, HEK293 cell lysates either untreated or treated with biguanide (10 mM phenformin in this example—as described above) were either immunoblotted or assayed for specific protein phosphatase activity by using combinations of phosphatase inhibitors and activators, as well as different phosphorylated substrates.
as §2

PP1 = PP1 phosphorylase phosphatase activity in HEK293 cell lysates; details: 10 mM phenformin, 32P-labelled phosphorylase a, 4 mM okadaic acid
Procedure: (§6) A Levels of phosphorylation of AMPK at Thr172 in 4 untreated and 4 treated samples. Anti-PP5 TPR domain antibody is used as a loading control. Molecular weights (kDa) are indicated to the left of the panels. B PP1 phosphorylase phosphatase activity in treated and untreated HEK293 cell lysates using phosphorylase a as substrate, in the presence of 4 nM okadaic acid. Data are mean±SEM for four samples measured in triplicate. C PP2A phosphorylase phosphatase activity in treated and untreated HEK293 cell lysates using phosphorylase a as substrate, in the presence of 200 nM I-2. Data are mean±SEM for four samples measured in triplicate. […]
The activity of PP1 in response to phenformin was assessed using ^32P-labelled phosphorylase a as substrate with […] okadaic acid included in the reaction in order to inhibit the activity of PP2A and EGTA (0.1-2 mM) to inhibit metal ion activated protein phosphatases. No change in PP1 phosphorylase phosphatase activity could be detected between unstimulated and 10 mM-phenformin stimulated cell lysates (FIG. 1B).

PP2A = PP2A phosphorylase phosphatase activity in HEK293 cell lysates; details: 10 mM phenformin, 32P labelled phosphorylase a, 200 nM I-2
Procedure: as §6
The activity of PP2A in response to phenformin was also assessed using ^32P labelled phosphorylase a as substrate, but for this assay 200 nM I-2 and EGTA (0.1-2 mM) to inhibit metal ion activated protein phosphatases was included to inhibit PP1. No change in the PP2A phosphorylase phosphatase activity could be detected between unstimulated and 10 mM-phenformin stimulated cell lysates (FIG. 1C).

PP5 = PP5 levels by immunoblotting in HEK293 cell lysates; details: HEK293 cells, 10 mM phenformin, antibody against TPR domains
Procedure: as §5
Since the activity of PP5 in HEK293 cells is low, the levels of PP5 were assessed by immunoblotting using an antibody against the TPR domains of the protein.

PPM1F = target: T2, PPM1F (Homo sapiens, UniProt P49593); test: Activity of PPM phosphatase immunoprecipitated from HEK293 cell lysates, casein substrate
T2 construct: endogenous in cells; host or cells: HEK293
T2 sequence (P49593 1-454): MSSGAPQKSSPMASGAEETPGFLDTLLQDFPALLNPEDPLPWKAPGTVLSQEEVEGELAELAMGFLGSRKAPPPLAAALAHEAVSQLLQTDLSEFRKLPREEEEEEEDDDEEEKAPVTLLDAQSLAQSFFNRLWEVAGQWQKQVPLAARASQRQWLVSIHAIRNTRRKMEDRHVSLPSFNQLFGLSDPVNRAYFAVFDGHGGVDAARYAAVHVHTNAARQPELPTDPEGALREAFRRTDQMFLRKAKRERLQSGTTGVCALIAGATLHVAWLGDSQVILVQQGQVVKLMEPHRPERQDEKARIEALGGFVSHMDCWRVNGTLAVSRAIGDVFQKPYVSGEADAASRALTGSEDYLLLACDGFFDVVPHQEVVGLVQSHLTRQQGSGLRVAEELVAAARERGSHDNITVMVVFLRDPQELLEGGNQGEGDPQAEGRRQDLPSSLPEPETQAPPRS
Procedure: PPM1F is immunopelleted with antibodies raised the amino acid sequence […] and the phosphatase activity in the immunopellet is measured in a protein phosphatase assay using 32P-labelled casein as substrate in the presence of 10 mM Mg2+ or Mn2+ ions and 5 μM okadaic acid.
as §3
as §4, with “assessed. In this example, the biguanides are metformin and phenformin.” for “assessed.”

activity of immunoprecipitated PPM1E (PPM1E) | activity of immunoprecipitated PPM1E (PPM1E; listed as Metformin) | SMILES | decrease in PPM phosphatase activity (PPM phosphatase [1]) [%] | decrease in PPM phosphatase activity (PPM phosphatase [2]) [%] | PP1 phosphorylase phosphatase activity (PP1) | PP2A phosphorylase phosphatase activity (PP2A) | levels of PP5 (PP5) | activity of immunoprecipitated PPM1F, % of the levels of untreated cells (PPM1F; HEK293 cells treated with phenformin) [%] | decrease in activity of immunoprecipitated PPM1F (PPM1F; HEK293 cells, 10 mM phenformin) [%]
almost completely ablated | Substantial specific knockdown | CN(C)C(=N)N=C(N)N [metformin, 1-(diaminomethylidene)-3,3-dimethyl-guanidine] | 20 | 20 | – | – | – | – | –
– | – | [H]/N=C(/N)N/C(=N/[H])NCCc1ccccc1 [phenformin, phenylethylbiguanide] | – | – | no effect | no effect | no effect | ~60 | ~40
